What was measured:
Format in all cases: in vivo
Indian mallow = assay: Test Example 3: weedkilling efficacy through soil treatment; K: Indian mallow; conditions: soil treatment
Summary of the method: (§1)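 Crop and weed responses were judged three weeks after a uniform surface spray of the water-diluted emulsion at the given g/ha rate. Seeds sat beneath about 1.5 cm of sterilized diluvial soil, and boxes stood in a greenhouse at 25 to 30° C.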

barnyard grass [1] = assay: Test Example 2: weedkilling efficacy, growth period weed treatment in the submerged state; A: barnyard grass; conditions: treatment dosage 320 g/ha
Summary of the method: (§2)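 Weeds treated at the 1-2 leaf stage by application of diluted emulsion onto floodwater (4 cm depth, alluvial soil) at specified g/ha. Grown in greenhouse at 25 to 30° C; herbicidal effect rated three weeks after treatment.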

catchweed = assay: Test Example 3: weedkilling efficacy through soil treatment; O: catchweed; conditions: soil treatment
Summary of the method: as §1

birds-eye speedwell = assay: Test Example 3: weedkilling efficacy through soil treatment; p: birds-eye speedwell; conditions: soil treatment
Summary of the method: as §1

wheat = assay: Test Example 3: soil treatment, effect on crop; e: wheat; conditions: soil treatment
Summary of the method: as §1

wild oat = assay: Test Example 3: weedkilling efficacy through soil treatment; G: wild oat; conditions: soil treatment
Summary of the method: as §1

fig-leafed goosefoot = assay: Test Example 3: weedkilling efficacy through soil treatment; M: fig-leafed goosefoot; conditions: soil treatment
Summary of the method: as §1

crabgrass = assay: Test Example 3: weedkilling efficacy through soil treatment; D: crabgrass; conditions: soil treatment
Summary of the method: as §1

oval-leafed pondweed [2] = assay: Test Example 2: weedkilling efficacy, growth period weed treatment in the submerged state; C: oval-leafed pondweed; conditions: treatment dosage 320 g/ha
Summary of the method: as §2

transplanted rice = assay: Test Example 1: preemergent weed treatment in the submerged state, effect on crop; a: transplanted rice; conditions: treatment dosage 320 g/ha
Summary of the method: (§3)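 Pots of alluvial soil were flooded to a 4 cm depth. Mixed weed seeds were sown and 2.5 leaf-stage rice seedlings transplanted. On sowing day, water-diluted emulsion was applied to the water surface (dose in g/ha). After 3 weeks at 25–30 °C, effects were rated.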

common wind-grass = assay: Test Example 3: weedkilling efficacy through soil treatment; J: common wind-grass; conditions: soil treatment
Summary of the method: as §1

chickweed = assay: Test Example 3: weedkilling efficacy through soil treatment; N: chickweed; conditions: soil treatment
Summary of the method: as §1

oval-leafed pondweed [3] = assay: Test Example 1: weedkilling efficacy, preemergent weed treatment in the submerged state; C: oval-leafed pondweed; conditions: treatment dosage 320 g/ha
Summary of the method: as §3

soybean = assay: Test Example 3: soil treatment, effect on crop; d: soybean; conditions: soil treatment
Summary of the method: as §1

green foxtail = assay: Test Example 3: weedkilling efficacy through soil treatment; E: green foxtail; conditions: soil treatment
Summary of the method: as §1

directly sown rice = assay: Test Example 3: soil treatment, effect on crop; b: directly sown rice; conditions: soil treatment
Summary of the method: as §1

Italian ryegrass = assay: Test Example 3: weedkilling efficacy through soil treatment; I: Italian ryegrass; conditions: soil treatment
Summary of the method: as §1

bulrush [4] = assay: Test Example 2: weedkilling efficacy, growth period weed treatment in the submerged state; B: bulrush; conditions: treatment dosage 320 g/ha
Summary of the method: as §2

corn = assay: Test Example 3: soil treatment, effect on crop; c: corn; conditions: soil treatment
Summary of the method: as §1

redroot pigweed = assay: Test Example 3: weedkilling efficacy through soil treatment; L: redroot pigweed; conditions: soil treatment
Summary of the method: as §1

barnyard grass [5] = assay: Test Example 1: weedkilling efficacy, preemergent weed treatment in the submerged state; A: barnyard grass; conditions: treatment dosage 320 g/ha
Summary of the method: as §3

barnyard grass [6] = assay: Test Example 3: weedkilling efficacy through soil treatment; F: barnyard grass; conditions: soil treatment
Summary of the method: as §1

rapeseed = assay: Test Example 3: soil treatment, effect on crop; g: rapeseed; conditions: soil treatment
Summary of the method: as §1

black-grass = assay: Test Example 3: weedkilling efficacy through soil treatment; H: black-grass; conditions: soil treatment
Summary of the method: as §1

beet = assay: Test Example 3: soil treatment, effect on crop; f: beet; conditions: soil treatment
Summary of the method: as §1

bulrush [7] = assay: Test Example 1: weedkilling efficacy, preemergent weed treatment in the submerged state; B: bulrush; conditions: treatment dosage 320 g/ha
Summary of the method: as §3

| SMILES | K: Indian mallow, weedkilling efficacy grade (Indian mallow; treatment dosage 320 g/ha) | A (barnyard grass) weedkilling efficacy grade (barnyard grass [1]) | O: catchweed, weedkilling efficacy grade (catchweed; treatment dosage 320 g/ha) | P: birds-eye speedwell, weedkilling efficacy grade (birds-eye speedwell; treatment dosage 320 g/ha) | e: wheat, effect on crop grade (wheat; treatment dosage 320 g/ha) | G: wild oat, weedkilling efficacy grade (wild oat; treatment dosage 320 g/ha) | M: fig-leafed goosefoot, weedkilling efficacy grade (fig-leafed goosefoot; treatment dosage 320 g/ha) | D: crabgrass, weedkilling efficacy grade (crabgrass; treatment dosage 320 g/ha) | C (oval-leafed pondweed) weedkilling efficacy grade (oval-leafed pondweed [2]) | a: transplanted rice, effect on crop grade (transplanted rice) | J: common wind-grass, weedkilling efficacy grade (common wind-grass; treatment dosage 320 g/ha) | N: chickweed, weedkilling efficacy grade (chickweed; treatment dosage 320 g/ha) | C: oval-leafed pondweed, weed kill grade (oval-leafed pondweed [3]) | d: soybean, effect on crop grade (soybean; treatment dosage 320 g/ha) | E: green foxtail, weedkilling efficacy grade (green foxtail; treatment dosage 320 g/ha) | b: directly sown rice, effect on crop grade (directly sown rice; treatment dosage 320 g/ha) | I: Italian ryegrass, weedkilling efficacy grade (Italian ryegrass; treatment dosage 320 g/ha) | B (bulrush) weedkilling efficacy grade (bulrush [4]) | c: corn, effect on crop grade (corn; treatment dosage 320 g/ha) | L: redroot pigweed, weedkilling efficacy grade (redroot pigweed; treatment dosage 320 g/ha) | further results |
| --- | --- | --- | --- | --- | --- | --- | --- | --- | --- | --- | --- | --- | --- | --- | --- | --- | --- | --- | --- | --- | --- |
| CC(C)(C(=O)Nc1cc(F)cc(Cl)n1)N1COCN(c2ccccc2)C1=O [A-2-14] | 5 (weed kill ratio 90% or more, (practically complete withering)) | 5 (weed kill ratio 90% or more, (practically complete withering)) | 5 (weed kill ratio 90% or more, (practically complete withering)) | 5 (weed kill ratio 90% or more, (practically complete withering)) | 4 (weed kill ratio 70% or more, less than 90%) | 5 (weed kill ratio 90% or more, (practically complete withering)) | 5 (weed kill ratio 90% or more, (practically complete withering)) | 5 (weed kill ratio 90% or more, (practically complete withering)) | 5 (weed kill ratio 90% or more, (practically complete withering)) | 3 (weed kill ratio 40% or more, less than 70%) | 5 (weed kill ratio 90% or more, (practically complete withering)) | 5 (weed kill ratio 90% or more, (practically complete withering)) | 5 (weed kill ratio 90% or more, (practically complete withering)) | 4 (weed kill ratio 70% or more, less than 90%) | 5 (weed kill ratio 90% or more, (practically complete withering)) | 5 (weed kill ratio 90% or more, (practically complete withering)) | 5 (weed kill ratio 90% or more, (practically complete withering)) | 5 (weed kill ratio 90% or more, (practically complete withering)) | 4 (weed kill ratio 70% or more, less than 90%) | 5 (weed kill ratio 90% or more, (practically complete withering)) | A: barnyard grass, weed kill grade (barnyard grass [5]): 5 (weed kill ratio 90% or more, (practically complete withering)); F: barnyard grass, weedkilling efficacy grade (barnyard grass [6]; treatment dosage 320 g/ha): 5 (weed kill ratio 90% or more, (practically complete withering)); g: rapeseed, effect on crop grade (rapeseed; treatment dosage 320 g/ha): 4 (weed kill ratio 70% or more, less than 90%); H: black-grass, weedkilling efficacy grade (black-grass; treatment dosage 320 g/ha): 5 (weed kill ratio 90% or more, (practically complete withering)); f: beet, effect on crop grade (beet; treatment dosage 320 g/ha): 4 (weed kill ratio 70% or more, less than 90%); B: bulrush, weed kill grade (bulrush [7]): 5 (weed kill ratio 90% or more, (practically complete withering)) |
| Cc1cc(F)nc(NC(=O)C(C)(C)N2COCN(c3ccccc3)C2=O)c1 [A-2-20] | 4 (weed kill ratio 70% or more, less than 90%) | 5 (weed kill ratio 90% or more, (practically complete withering)) | 5 (weed kill ratio 90% or more, (practically complete withering)) | 5 (weed kill ratio 90% or more, (practically complete withering)) | 3 (weed kill ratio 40% or more, less than 70%) | 5 (weed kill ratio 90% or more, (practically complete withering)) | 4 (weed kill ratio 70% or more, less than 90%) | 5 (weed kill ratio 90% or more, (practically complete withering)) | 5 (weed kill ratio 90% or more, (practically complete withering)) | 3 (weed kill ratio 40% or more, less than 70%) | 5 (weed kill ratio 90% or more, (practically complete withering)) | 4 (weed kill ratio 70% or more, less than 90%) | 5 (weed kill ratio 90% or more, (practically complete withering)) | 3 (weed kill ratio 40% or more, less than 70%) | 5 (weed kill ratio 90% or more, (practically complete withering)) | 5 (weed kill ratio 90% or more, (practically complete withering)) | 5 (weed kill ratio 90% or more, (practically complete withering)) | 5 (weed kill ratio 90% or more, (practically complete withering)) | 1 (weed kill ratio 5% or more, less than 20%) | 4 (weed kill ratio 70% or more, less than 90%) | A: barnyard grass, weed kill grade (barnyard grass [5]): 5 (weed kill ratio 90% or more, (practically complete withering)); F: barnyard grass, weedkilling efficacy grade (barnyard grass [6]; treatment dosage 320 g/ha): 5 (weed kill ratio 90% or more, (practically complete withering)); g: rapeseed, effect on crop grade (rapeseed; treatment dosage 320 g/ha): 4 (weed kill ratio 70% or more, less than 90%); H: black-grass, weedkilling efficacy grade (black-grass; treatment dosage 320 g/ha): 5 (weed kill ratio 90% or more, (practically complete withering)); f: beet, effect on crop grade (beet; treatment dosage 320 g/ha): 4 (weed kill ratio 70% or more, less than 90%); B: bulrush, weed kill grade (bulrush [7]): 5 (weed kill ratio 90% or more, (practically complete withering)) |
| CC(C)(C(=O)Nc1cc(Cl)cc(C2CC2)n1)N1COCN(c2ccccc2)C1=O [A-2-29] |  |  |  |  |  |  |  |  |  |  |  |  |  |  |  |  |  |  |  |  | K: Indian mallow, weedkilling efficacy grade (Indian mallow; treatment dosage 230 g/ha): 3 (weed kill ratio 40% or more, less than 70%); O: catchweed, weedkilling efficacy grade (catchweed; treatment dosage 230 g/ha): 3 (weed kill ratio 40% or more, less than 70%); P: birds-eye speedwell, weedkilling efficacy grade (birds-eye speedwell; treatment dosage 230 g/ha): 5 (weed kill ratio 90% or more, (practically complete withering)); e: wheat, effect on crop grade (wheat; treatment dosage 230 g/ha): 0 (weed kill ratio 5% or less (practically no effect)); G: wild oat, weedkilling efficacy grade (wild oat; treatment dosage 230 g/ha): 3 (weed kill ratio 40% or more, less than 70%); M: fig-leafed goosefoot, weedkilling efficacy grade (fig-leafed goosefoot; treatment dosage 230 g/ha): 3 (weed kill ratio 40% or more, less than 70%); D: crabgrass, weedkilling efficacy grade (crabgrass; treatment dosage 230 g/ha): 5 (weed kill ratio 90% or more, (practically complete withering)); J: common wind-grass, weedkilling efficacy grade (common wind-grass; treatment dosage 230 g/ha): 5 (weed kill ratio 90% or more, (practically complete withering)); N: chickweed, weedkilling efficacy grade (chickweed; treatment dosage 230 g/ha): 4 (weed kill ratio 70% or more, less than 90%); d: soybean, effect on crop grade (soybean; treatment dosage 230 g/ha): 0 (weed kill ratio 5% or less (practically no effect)); E: green foxtail, weedkilling efficacy grade (green foxtail; treatment dosage 230 g/ha): 5 (weed kill ratio 90% or more, (practically complete withering)); b: directly sown rice, effect on crop grade (directly sown rice; treatment dosage 230 g/ha): 1 (weed kill ratio 5% or more, less than 20%); I: Italian ryegrass, weedkilling efficacy grade (Italian ryegrass; treatment dosage 230 g/ha): 5 (weed kill ratio 90% or more, (practically complete withering)); c: corn, effect on crop grade (corn; treatment dosage 230 g/ha): 1 (weed kill ratio 5% or more, less than 20%); L: redroot pigweed, weedkilling efficacy grade (redroot pigweed; treatment dosage 230 g/ha): 2 (weed kill ratio 20% or more, less than 40%); F: barnyard grass, weedkilling efficacy grade (barnyard grass [6]; treatment dosage 230 g/ha): 5 (weed kill ratio 90% or more, (practically complete withering)); g: rapeseed, effect on crop grade (rapeseed; treatment dosage 230 g/ha): 4 (weed kill ratio 70% or more, less than 90%); H: black-grass, weedkilling efficacy grade (black-grass; treatment dosage 230 g/ha): 5 (weed kill ratio 90% or more, (practically complete withering)); f: beet, effect on crop grade (beet; treatment dosage 230 g/ha): 3 (weed kill ratio 40% or more, less than 70%) |

From patent US9738634B2, “Heterocyclic amide compound and herbicide” (SYNGENTA PARTICIPATIONS AG, priority 2013, dated 2017)
